Results published in ChEMBL document CHEMBL1138140, “Inhibition of DNA helicases with DNA-competitive inhibitors” (Bioorg Med Chem Lett, 2006).
pIC50: −log10 of the molar value.

Legend:
Format in all cases: functional
[1] = molecular target: T1, DNA helicase IV (Escherichia coli K-12) (UniProt P15038); assay: Inhibition of ATPase activity of Helicase4 from Escherichia coli at 10 uM
T1 sequence (whole entry): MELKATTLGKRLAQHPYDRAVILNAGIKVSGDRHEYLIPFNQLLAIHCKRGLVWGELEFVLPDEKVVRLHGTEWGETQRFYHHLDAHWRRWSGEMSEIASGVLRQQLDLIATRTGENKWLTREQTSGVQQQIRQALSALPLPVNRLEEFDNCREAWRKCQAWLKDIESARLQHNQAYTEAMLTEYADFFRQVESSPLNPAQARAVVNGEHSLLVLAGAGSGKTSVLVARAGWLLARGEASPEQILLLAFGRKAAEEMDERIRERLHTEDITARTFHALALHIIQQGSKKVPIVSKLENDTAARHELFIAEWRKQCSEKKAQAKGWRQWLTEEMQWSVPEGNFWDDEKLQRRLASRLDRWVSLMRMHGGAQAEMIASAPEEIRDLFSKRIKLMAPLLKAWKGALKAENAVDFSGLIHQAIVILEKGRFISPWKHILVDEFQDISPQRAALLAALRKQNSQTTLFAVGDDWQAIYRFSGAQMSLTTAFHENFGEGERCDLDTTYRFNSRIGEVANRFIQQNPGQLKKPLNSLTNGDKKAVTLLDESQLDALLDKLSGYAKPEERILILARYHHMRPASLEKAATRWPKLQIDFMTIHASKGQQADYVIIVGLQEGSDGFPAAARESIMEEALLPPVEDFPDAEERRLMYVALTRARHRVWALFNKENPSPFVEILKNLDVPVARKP

DNA helicase IV [2] = molecular target: T2, DNA helicase IV (Escherichia coli K-12, UniProt P15038); assay: Inhibition of ATPase activity of Helicase4 from Escherichia coli in presence of ATP (5x Km(ATP)) and dT25 (5x KDNA)
T2 sequence (P15038 whole entry): T1 sequence (whole entry)

[3] = molecular target: T1, DNA helicase IV (Escherichia coli K-12); assay: Inhibition of helicase activity of Helicase4 from Escherichia coli at 10 uM
DNA helicase IV [4] = molecular target: DNA helicase IV (Escherichia coli K-12, UniProt P15038, Y473A); assay: Inhibition of ATPase activity of Tyr473Ala mutated Helicase4 in presence of ATP (5x Km(ATP)) and dT25 (5x KDNA)
Sequence of DNA helicase IV (Escherichia coli K-12, UniProt P15038, Y473A) (P15038 whole entry Y473A): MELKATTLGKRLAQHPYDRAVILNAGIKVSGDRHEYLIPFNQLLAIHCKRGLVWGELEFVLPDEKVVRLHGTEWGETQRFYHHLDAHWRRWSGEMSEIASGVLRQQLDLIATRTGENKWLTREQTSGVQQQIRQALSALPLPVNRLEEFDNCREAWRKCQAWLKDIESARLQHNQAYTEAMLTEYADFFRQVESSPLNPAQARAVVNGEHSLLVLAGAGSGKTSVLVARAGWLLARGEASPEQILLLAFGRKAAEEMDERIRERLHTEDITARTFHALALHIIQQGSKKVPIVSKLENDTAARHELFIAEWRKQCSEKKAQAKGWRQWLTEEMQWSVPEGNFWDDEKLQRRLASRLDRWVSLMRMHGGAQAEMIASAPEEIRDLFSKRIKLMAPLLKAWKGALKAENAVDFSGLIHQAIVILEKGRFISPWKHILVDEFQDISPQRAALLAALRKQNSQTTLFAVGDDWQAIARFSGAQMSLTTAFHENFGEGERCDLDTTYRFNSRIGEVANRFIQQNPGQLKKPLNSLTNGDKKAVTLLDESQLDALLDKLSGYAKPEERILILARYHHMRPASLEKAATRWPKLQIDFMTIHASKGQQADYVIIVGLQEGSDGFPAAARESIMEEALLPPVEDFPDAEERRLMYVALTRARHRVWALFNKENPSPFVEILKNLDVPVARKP

Compound	inhibition [1] [%]	pIC50 (DNA helicase IV [2])	inhibition [3] [%]	pIC50 (DNA helicase IV [4])
CC(C(=O)O)c1ccc2c(c1)C(=O)c1ccccc1CS2 (configuration not stated)	98	5.52	93	
O=C(O)Cc1ccc2c(c1)C(=O)c1ccccc1C[S+]2[O-] (configuration not stated)	2		0	
O=C(O)Cc1ccc2c(c1)C(=O)c1ccccc1CS2	93	5.30	79	5.26
CCOC(=O)Cc1ccc2c(c1)C(=O)c1ccccc1CS2	0		5	

Continued, in another order:

inhibition [1] [%]	pIC50 (DNA helicase IV [2])	inhibition [3] [%]	Compound	pIC50 (DNA helicase IV [4])
78	5.15	53	Cc1ccc2c(c1)CSc1ccc(CC(=O)O)cc1C2=O	
99	5.85	89	CC(=O)Nc1ccc2c(c1)C(=O)c1cc(CC(=O)O)ccc1SC2	
